The values below come from patent US20230211362A1, “A METHOD OF COATING AN OCULAR PROSTHETIC DEVICE AND OTHER PROSTHETICS” (UEA Enterprises Limited, priority 2020, published 2023).

Structures are written as SMILES. Where a name gives a salt, the structure may show the parent alone.

For data set [1] the following is noted: cited from earlier work.
The nature of data set [2]: In vitro drug release tests of nanoelectrosprayed contact lenses in PBS 7.4 under sink conditions, HPLC (Example 4). It counts as physicochemical. Conditions: zein film on contact lens (BIM1); 2 ml PBS 7.4, 35° C., 125 rpm; FIG. 32 bottom. As to the method: Glass vials containing 2 ml PBS 7.4 was incubated in a shaking incubator set at 35° C. with 125 rpm for 2 hours before in vitro experiments. All in vitro experiments were performed under sink conditions (i.e., the drug concentration within the in vitro dissolution medium was more than 10 times diluted in comparison to the saturated solubility of the drug in the medium). The nanoelectrosprayed lenses were placed into the vial and an aliquot of 1.5 ml was replaced with fresh PBS at regular intervals up to 24 hours (for KF the intervals were 0.5, 1, 3, 6, and 24 hours; for BIM the intervals were 0.25, 0.5, 0.75, 1, 2, 3, 4, 5, 6, and 24 hours). […] The total amount of ketotifen and bimatoprost sprayed on a contact lens was determined by the sum of the cumulative amount of the drug released during the in vitro study and the amount obtained from extraction.
The high-performance liquid chromatography system (Jasco, Japan) consists of a pump (PU-1580), an autosampler (AS-2055 Plus) and a 4-channel UV detector (UV-1570M). A Waters C18 column (250×4.6 mm i.d.; 5 μm particle size) was used under ambient conditions. The mobile phase of ketotifen fumarate and bimatoprost was prepared according to a method adopted from the literature. The mobile phase for ketotifen comprised methanol and 0.2% triethylamine (v/v) (80:20), running with 1 ml/min flow rate. […]

Regarding `CN1CCC(=C2c3ccccc3CC(=O)c3sccc32)CC1` [Ketotifen fumarate], in data set [1], the “Log P” value is 3.4 and the “pKa (acid)” value is listed as 12.3. Moreover, the “solubility in aqueous solutions” value in data set [1] (slightly soluble in aqueous solutions) is 7.87 µg/mL.

On to `CCNC(=O)CCC/C=C\C[C@@H]1[C@@H](/C=C/[C@@H](O)CCc2ccccc2)[C@H](O)C[C@@H]1O` [bimatoprost], for which, in data set [2], the “bimatoprost release after 6 hours” value came to 98% and the “bimatoprost released in the first 30 minutes” value was 51%.

As a reminder, the Log P is a log measure of how a compound divides between an organic and an aqueous phase.
